Results as given in patent publication US20190209501A1, “COMPOSITIONS AND METHODS OF USE OF BETA-HYDROXY-BETA-METHYLBUTYRATE (HMB) […] IN[…]” (Texas Tech University Office of Research Commercialization, priority 2018, published 2019).
“Also recorded” adds a separate entry of the source.

What was measured:
Type in all cases: in vivo, human
[1] = 1-repetition maximum and repetitions to failure, bench press and hip sled (leg press); conditions: for 1RMBP (kg) Week 4 / 1RMBP (kg) Week 8: 1-repetition maximum bench press; for 1RMBP (kg) Week 4 / 1RMBP (kg) Week 8 / 1RMLP (kg) Week 8 / RTFBP (reps) Week 4 / RTFBP (reps) Week 8 / RTFLP (reps) Week 8: mean ± SE; for 1RMLP (kg) Week 8: 1-repetition maximum leg press; for 1RMBP Δ (%) / 1RMLP Δ (%) / RTFBP Δ (%) / RTFLP Δ (%): change baseline to week 8 relative to baseline; for RTFBP (reps) Week 4 / RTFBP (reps) Week 8: repetitions to failure bench press; for RTFBP (reps) Week 4 / RTFBP (reps) Week 8 / RTFLP (reps) Week 8: 70% of baseline 1-RM; for RTFLP (reps) Week 8: repetitions to failure leg press; for 1RMBP (kg) Δ / 1RMLP (kg) Δ / RTFBP (reps) Δ / RTFLP (reps) Δ: week 8 minus baseline
Excerpt: Assessments of muscular performance took place between 12:00 and 18:00 in the non-fasted state, and participants were instructed to follow their preferred food and fluid intake patterns prior to testing. The assessment began with a 5-minute warm up period using a self-selected pace on a stationary bicycle. This warm up period was followed by assessment of countermovement vertical jumps (CMVJ) performance, testing on a mechanized squat device, and muscular strength and endurance assessment on the bench press and hip sled exercises. At the 4-week assessment, the CMVJ and hip sled assessments were not performed.
Resistance exercise performance for the bench press and hip sled exercises was evaluated via the 1-repetition maximum (1RM) and repetitions to failure with 70% of the 1RM. The 1RM testing protocol was based on the recommendations of the National Strength and Conditioning Association (33). Briefly, after completing warm up sets, participants completed 2 to 3 repetitions using a load estimated to be near-maximal. 1RM attempts then commenced, with the goal of obtaining the 1RM in between 3 and 5 attempts. Three minutes of rest were allowed between attempts. The maximal weight lifted with proper form was recorded as the 1RM. After the 1RM was obtained, a 3-minute rest period was allowed before repetitions to failure (RTF) were completed using 70% of the 1RM. For all participants, the bench press was tested before the leg press in order to allow for recovery of the lower body following the mechanized squat testing.

[2] = Reported side effects / adverse events
[3] = Salivary cortisol awakening response; set-up: Cortisol Awakening Response (AUC) / Cortisol Awakening Response (AUC) Δ: unit not given here; conditions: for Average Cortisol / Cortisol Awakening Response (AUC): mean ± SE; for Average Cortisol Δ / Average Cortisol Δ (%) / Cortisol Awakening Response (AUC) Δ / Cortisol Awakening Response (AUC) Δ (%): change baseline to W 8; for Average Cortisol ES (d) / Cortisol Awakening Response (AUC) ES (d): effect size
Excerpt: At baseline and after 4 and 8 weeks of the intervention, participants completed two testing sessions: (1) a morning assessment conducted after an overnight fast for assessment of body composition, metabolism, vascular measures and subjective factors: and (2) an afternoon assessment of muscular performance, conducted in the non-fasted state. For morning assessments, participants reported to the laboratory after abstention from eating, drinking, exercising and utilizing caffeine or nicotine for ≥8 hours. Participants were interviewed to confirm adherence to these pre-assessment restrictions. The actual abstention from exercise was ≥14 hours due to the scheduling of exercise sessions. Participants reported to the laboratory wearing athletic clothing, and all metal and accessories were removed from the body prior to testing. Each participant voided her bladder and provided a urine sample. Urine samples were assessed for urine specific gravity (USG) using a digital refractometer (PA201X-093. Misco, Solon, Ohio. USA). Additionally, a standard urinary HCG test was performed to confirm that each participant was not pregnant. Finally, urinary samples were frozen at −80° C. for assessment of urinary HMB content after study unblinding. After voiding, each participant's body mass (BM) and height were determined via digital scale with stadiometer (Seca 769, Hamburg, Germany). Blood draws were performed at Texas Tech University Student Health Services after an overnight fast, and participants completed at-home saliva collections for assessment of the cortisol awakening response (CAR).
Each participant was familiarized with the saliva collection procedures at the baseline visit. Saliva collection took place using the passive drool method, with allows for saliva to be transferred from the mouth to a small vial according to manufacturer recommendations (36). Three saliva samples during the baseline period for assessment of the cortisol awakening response (CAR; the characteristic increase in cortisol concentrations upon waking (37)). These samples were collected at the participant's home 0, 30 and 45 minutes after waking. The importance of collecting the saliva sample exactly as instructed was strongly emphasized to research participants. Participants were provided with reminder signs to place by the bedside and were instructed to set alarms for saliva collection timepoints. Upon obtaining the sample, each participant was instructed to place the vial in the freezer until it could be transported to the laboratory. Upon delivery to the lab, each vial of saliva was stored at −80° C. until shipment to a saliva testing facility for analysis (Salimetrics LLC, Carlsbad, Calif., USA). For the analysis, samples were thawed to room temperature, vortexed, and then centrifuged for 15 minutes at approximately 3,000 RPM (1,500×g) immediately before performing the assay. Samples were tested for salivary cortisol using a high sensitivity enzyme immunoassay (Cat. No. 1-3002). Sample test volume was 25 μl of saliva per determination. The assay has a lower limit of sensitivity of 0.007 μg/dL, a standard curve range from 0.012-3.0 μg/dL, and an average intra-assay coefficient of variation of 4.60%, and an average inter-assay coefficient of variation 6.00%, which meets the manufacturers' criteria for accuracy and repeatability in Salivary Bioscience. and exceeds the applicable NIH guidelines for Enhancing Reproducibility through Rigor and Transparency.

[4] = ITT analysis, Cohen's d baseline vs week 8
[5] = PP analysis, Cohen's d baseline vs week 8

Compound: CC(C)(O)CC(=O)O [TRFHMB, β-hydroxy-β-methylbutyrate]
- 1RMBP (kg) Week 4 ([1]; ITT analysis): 42.3 ± 2.4 kg
- 1RMBP (kg) Week 8 ([1]; ITT analysis): 47.3 ± 2.5 kg
- 1RMLP (kg) Week 8 ([1]; ITT analysis): 205.2 ± 15.0 kg
- 1RMLP ES (d) [1, 4]: 1.65
- RTFBP ES (d) [1, 4]: 1.91
- RTFLP ES (d) [1, 4]: 1.52
- 1RMBP Δ (%) ([1]; ITT analysis): 21%
- 1RMLP Δ (%) ([1]; ITT analysis): 57%
- RTFBP Δ (%) ([1]; ITT analysis): 68%
- RTFLP Δ (%) ([1]; ITT analysis): 145%
- RTFBP (reps) Week 4 ([1]; ITT analysis): 20.0 ± 1.6 reps
- RTFBP (reps) Week 8 ([1]; ITT analysis): 24.9 ± 1.8 reps
- RTFLP (reps) Week 8 ([1]; ITT analysis): 38.0 ± 5.4 reps
- 1RMBP (kg) Δ ([1]; ITT analysis): 8 kg
- 1RMLP (kg) Δ ([1]; ITT analysis): 75 kg
- RTFBP (reps) Δ ([1]; ITT analysis): 10 reps
- RTFLP (reps) Δ ([1]; ITT analysis): 23 reps
- Average ES for muscular endurance (RTFLP and RTFBP) ([1]; PP analysis only, vs 2.3 in CD): 1.5
- 1RMBP (kg) Week 4 ([1]; PP analysis): 43 ± 4 kg
- 1RMBP (kg) Week 8 ([1]; PP analysis): 48 ± 4 kg
- 1RMLP (kg) Week 8 ([1]; PP analysis): 220 ± 19 kg
- 1RMBP ES (d) [1, 5]: 0.76
- 1RMLP ES (d) [1, 5]: 1.80
- RTFBP ES (d) [1, 5]: 1.86
- RTFLP ES (d) [1, 5]: 1.27
- 1RMBP Δ (%) ([1]; PP analysis): 20%
- 1RMLP Δ (%) ([1]; PP analysis): 51%
- RTFBP Δ (%) ([1]; PP analysis): 79%
- RTFLP Δ (%) ([1]; PP analysis): 94%
- RTFBP (reps) Week 4 ([1]; PP analysis): 20 ± 2 reps
- RTFBP (reps) Week 8 ([1]; PP analysis): 25 ± 3 reps
- RTFLP (reps) Week 8 ([1]; PP analysis): 31 ± 6 reps
- 1RMBP (kg) Δ ([1]; PP analysis): 8 kg
- 1RMLP (kg) Δ ([1]; PP analysis): 74 kg
- RTFBP (reps) Δ ([1]; PP analysis): 11 reps
- RTFLP (reps) Δ ([1]; PP analysis): 15 reps
- Reported side effects at W4 ([2]; week 4, n=1 each): morning fatigue; also recorded: bloated stomach
- Reported side effects at W8 ([2]; week 8, n=1): bloated stomach
- Average Cortisol ([3]; ITT, Baseline): 0.40 ± 0.07 µg/dL
- Cortisol Awakening Response (AUC) ([3]; ITT, Baseline): 17.5 ± 3.2
- Average Cortisol ([3]; ITT, W 8): 0.39 ± 0.98 µg/dL
- Cortisol Awakening Response (AUC) ([3]; ITT, W 8): 16.9 ± 4.0
- Average Cortisol Δ ([3]; ITT): -0.01 µg/dL
- Average Cortisol Δ (%) ([3]; ITT): −3%
- Cortisol Awakening Response (AUC) Δ ([3]; ITT): −0.6
- Cortisol Awakening Response (AUC) Δ (%) ([3]; ITT): −3%
- Average Cortisol ES (d) ([3]; ITT): −0.04
- Cortisol Awakening Response (AUC) ES (d) ([3]; ITT): −0.05
- Average Cortisol ([3]; PP, Baseline): 0.34 ± 0.07 µg/dL
- Cortisol Awakening Response (AUC) ([3]; PP, Baseline): 14.0 ± 3.3
- Average Cortisol ([3]; PP, W 8): 0.42 ± 0.1 µg/dL
- Cortisol Awakening Response (AUC) ([3]; PP, W 8): 18.2 ± 4.7
- Average Cortisol Δ ([3]; PP): 0.1 µg/dL
- Average Cortisol Δ (%) ([3]; PP): 24%
- Cortisol Awakening Response (AUC) Δ ([3]; PP): 4.2
- Cortisol Awakening Response (AUC) Δ (%) ([3]; PP): 30%
- Average Cortisol ES (d) ([3]; PP): 0.93
- Cortisol Awakening Response (AUC) ES (d) ([3]; PP): 0.64
